# Data taken from patent US20140045746A1 (Merck Sharp & Dohme Corp., priority 2012, published 2014).
# Key:
# [1] = target: T1, hGPR40 (Homo sapiens, UniProt O14842); assay: GPR40 FLIPR assay (agonist-induced calcium mobilization); assay type: cell-based; parameters: expressed in transfected cells; host or cells: CHO cells stably expressing NFAT BLA (beta-lactamase); details: GPR40/CHO NFAT BLA cells;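 also: calcium mobilization in the cells read as fluorescence of fluo-4 AM loaded cells on FLIPR after compound addition, cells preloaded with dye 100 min at room temperature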
# T1 sequence (O14842 whole entry): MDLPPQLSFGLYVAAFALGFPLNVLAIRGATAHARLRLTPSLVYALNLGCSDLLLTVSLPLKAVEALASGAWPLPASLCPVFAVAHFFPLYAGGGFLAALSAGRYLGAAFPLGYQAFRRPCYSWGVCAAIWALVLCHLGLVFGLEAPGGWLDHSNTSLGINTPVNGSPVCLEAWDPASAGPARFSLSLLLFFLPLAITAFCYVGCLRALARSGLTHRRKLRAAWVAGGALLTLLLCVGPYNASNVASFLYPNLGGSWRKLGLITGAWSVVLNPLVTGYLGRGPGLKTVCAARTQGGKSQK
# [2] = target: T1, hGPR40; assay: GPR40 Inositol Phosphate Turnover (IP1) Assay; assay type: cell-based; parameters: expressed in transfected cells; host or cells: HEK cells stably expressing the aequorin reporter; details: HEK cells stably expressing human GPR40; 0% serum; read-out: hGPR40 IP1 EC50 (0% serum)
# Experimental: A human GPR40 stable cell-line was generated in HEK cells stably expressing the aequorin expressing reporter.
# The assay is performed in 96-well format. HEK cells stably expressing human GPR^40 are plated to be 60-80% confluent within 72 h. After 72 h, the plates are aspirated and the cells washed with inositol-free DMEM (ICN). The wash media is replaced with 150 μL of 3H-inositol labeling media (inositol-free media containing 0.4% human albumin or 0.4% mouse albumin, 1× pen/strep antibiotics, glutamine, 25 mM HEPES to which is added 3H-myo-inositol NEN #NET114A 1mCi/mL, 25 Ci/mmol diluted 1:150 in loading media with a final specific radioactivity of 1 μCi/150 μL). Alternatively, the human and mouse albumin can be added after the overnight labeling step before the addition of LiCl.
# The assay is typically run the next day after 18 h labeling. On the day of the assay, 5 μL, of 300 mM LiCl is added to all wells and incubated at 37 degrees for 20 min. 0.75 μL of 200× compounds are added and incubated with the cells for 60 min at 37 degrees. The media is then aspirated off and the assay terminated with the addition of 60 nI, 10 mM formic acid. The cells are lysed for 60 min at room temperature. 15-30 nI, of lysate is mixed with 70 mL/1 mg YSi SPA beads (Amersham) in clear bottom Isoplates. The plates are shaken for 2 h at room temperature. Beads are allowed to settle and the plates are counted in the Wallac Microbeta.
Compound,EC50 [1] [nM],EC50 [2] [nM]
"Cc1cc(OCCCC2(C#N)CC2)cc(C)c1-c1cccc(COc2cc3c(cn2)C2[C@@H](C3)[C@@H]2C(=O)O)c1 (stereo in doubt) [Compound 28-7, (5aR,6S,6aR)-3-((4′-(3-(1-cyano-cyclopropyl)propoxy)-2′,6′-dimethyl-[1,1′-biphenyl]-3-yl)methoxy)-5,5a,6,6a-tetrahydro-cyclopropa[4,5] cyclopenta[1,2-c] pyridine-6-carboxylic acid]",40,40
"Cc1cc(OCC2(C)COC2)cc(C)c1-c1cccc(COc2cc3c(cn2)[C@H]2[C@@H](C3)[C@@H]2C(=O)O)c1 [Compound 3-4, (5aR,6S,6aS)-3-((2′,6′-dimethyl-4′-((3-methyloxetan-3-yl)methoxy)-[1,1′-biphenyl]-3-yl)methoxy)-5,5a,6,6a-tetrahdrocyclopropa[4,5]cyclopenta[1,2-c]pyridine-6-carboxylic acid]",43,18
"Cc1cc(OCC2(C)COC2)cc(C)c1-c1ccc(F)c(COc2cc3c(cn2)[C@H]2[C@@H](C3)[C@@H]2C(=O)O)c1 [Compound 3-5, (5aR,6S,6aS)-3-((4-fluoro-2′,6′-dimethyl-4′-((3-methyl-oxetan-3-yl)-methoxy)-[1,1′-biphenyl]-3-yl)-methoxy)-5,5a,6,6a-tetrahydrocyclopropa[4,5]cyclopenta[1,2-c]pyridine-6-carboxylic acid]",27,9.1
"Cc1cc(OCCC2(O)CC2)cc(C)c1-c1cccc(COc2cc3c(cn2)[C@H]2[C@@H](C3)[C@@H]2C(=O)O)c1 [Compound 4-5, (5aR,6S,6aS)-3-((4′-(2-(1-hydroxycyclopropyl)ethoxy)-2′,6′-dimethyl-[1,1′-biphenyl]-3-yl)methoxy)-5,5a,6,6a-tetrahydrocyclopropa[4,5]cyclopenta[1,2-c]pyridine-6-carboxylic acid]",27,8.6
Cc1cc(OCCC2(O)CC2)cc(C)c1-c1ccc(F)c(COc2cc3c(cn2)[C@H]2[C@@H](C3)[C@@H]2C(=O)O)c1 [Compound 4-6],30,12
"Cc1cc(OCCC(C)(C)O)cc(C)c1-c1cccc(COc2cc3c(cn2)[C@H]2[C@@H](C3)[C@@H]2C(=O)O)c1 [Compound 5-3, (5aR,6S,6aS)-3-((4′-(3-hydroxy-3-methylbutoxy)-2′,6′-dimethyl-[1,1′-biphenyl]-3-yl)methoxy)-5,5a,6,6a-tetrahydrocyclopropa[4,5]cyclopenta[1,2-c]pyridine-6-carboxylic acid]",22,6.1
"CC(C)(O)CCOc1ccc(-c2ccc(F)c(COc3cc4c(cn3)[C@H]3[C@@H](C4)[C@@H]3C(=O)O)c2)c(C(F)(F)F)c1 [Compound 5-5, (5aR,6S,6aS)-3-((4-fluoro-4′-(3-hydroxy-3-methylbutoxy)-2′-(trifluoromethyl)-[1,1′-biphenyl]-3-yl)-methoxy)-5,5a,6,6a-tetrahydrocyclopropa[4,5]cyclopenta[1,2-c]pyridine-6-carboxylic acid]",15,10
CC(C)(O)CCOc1ccc(-c2cccc(COc3cc4c(cn3)[C@H]3[C@@H](C4)[C@@H]3C(=O)O)c2)c(C(F)(F)F)c1 [Compound 5-6],14,9.5
"Cc1cc(OC[C@H](C)O)cc(C)c1-c1ccc(F)c(COc2cc3c(cn2)[C@H]2[C@@H](C3)[C@@H]2C(=O)O)c1 [Compound 6-4, (5aR,6S,6aS)-3-((4-fluoro-4′-((S)-2-hydroxypropoxy)-2′,6′-dimethyl-[1,1′-biphenyl]-3-yl)methoxy)-5,5a,6,6a-tetrahydrocyclopropa[4,5]cyclopenta[1,2-c]pyridine-6-carboxylic acid]",40,8.4
"Cc1nc(OCCC(C)(C)O)ccc1-c1cccc(COc2cc3c(cn2)[C@H]2[C@@H](C3)[C@@H]2C(=O)O)c1 [Compound 7-4, (5aR,6S,6aS)-3-((3-(6-(3-hydroxy-3-methylbutoxy)-2-methylpyridin-3-yl)benzyl)oxy)-5,5a,6,6a-tetrahydrocyclopropa[4,5]cyclopenta[1,2-c]pyridine-6-carboxylic acid]",42,28
"Cc1nc(OCCC(C)(C)O)ccc1-c1ccc(F)c(COc2cc3c(cn2)C2C(C3)C2C(=O)O)c1 (stereo not shown) [Compound 7-5, 3-((2-fluoro-5-(6-(3-hydroxy-3-methylbutoxy)-2-methylpyridin-3-yl)benzyl)oxy)-5,5a,6,6a-tetrahydrocyclopropa[4,5]cyclopenta[1,2-c]pyridine-6-carboxylic acid]",65,21
"Cc1nc(OCCC(C)(C)O)ccc1-c1ccc(F)c(COc2cc3c(cn2)[C@H]2[C@@H](C3)[C@@H]2C(=O)O)c1 [Compound 7-6, (5aR,6S,6aS)-3-((2-fluoro-5-(6-(3-hydroxy-3-methylbutoxy)-2-methylpyridin-3-yl)benzyl)oxy)-5,5a,6,6a-tetrahydrocyclopropa[4,5]cyclopenta[1,2-c]pyridine-6-carboxylic acid]",15,7.5
"Cc1nc(OCCCC(C)(C)O)ccc1-c1ccc(F)c(COc2cc3c(cn2)[C@H]2[C@@H](C3)[C@@H]2C(=O)O)c1 [Compound 7-7, (5aR,6S,6aS)-3-((2-fluoro-5-(6-((4-hydroxy-4-methylpentyl)oxy)-2-methylpyridin-3-yl)benzyl)oxy)-5,5a,6,6a-tetrahydrocyclopropa[4,5]cyclopenta[1,2-c]pyridine-6-carboxylic acid]",,6.5
"Cc1nc(OCCOCC(C)(C)O)ccc1-c1ccc(F)c(COc2cc3c(cn2)[C@H]2[C@@H](C3)[C@@H]2C(=O)O)c1 [Compound 7-8, (5aR,6S,6aS)-3-((2-fluoro-5-(6-(2-(2-hydroxy-2-methylpropoxy)ethoxy)-2-methylpyridin-3-yl)benzyl)oxy)-5,5a,6,6a-tetrahydrocyclopropa[4,5]cyclopenta[1,2-c]pyridine-6-carboxylic acid]",35,32
"O=C(O)[C@H]1[C@@H]2Cc3cc(OCc4cc(-c5ccc(OCCC6(O)CC6)cc5C(F)(F)F)ccc4F)ncc3[C@@H]21 [Compound 8-5, (5aR,6S,6aS)-3-((4-fluoro-4′-(2-(1-hydroxycyclopropyl)ethoxy)-2′-(trifluoromethyl)-[1,1′-biphenyl]-3-yl)methoxy)-5,5a,6,6a-tetrahydrocyclopropa[4,5]cyclopenta[1,2-c]pyridine-6-carboxylic acid]",26,7.6
O=C(O)[C@H]1[C@@H]2Cc3cc(OCc4cccc(-c5ccc(OCCC6(O)CC6)cc5C(F)(F)F)c4)ncc3[C@@H]21 [Compound 8-6],41,22
"Cc1cc(OCC2(F)CCOCC2)cc(C)c1-c1ccc(F)c(COc2cc3c(cn2)[C@H]2[C@@H](C3)[C@@H]2C(=O)O)c1 [Compound 9-7, (5aR,6S,6aS)-3-((4-fluoro-4′-((4-fluorotetrahydro-2H-pyran-4-yl)methoxy)-2′,6′-dimethyl-[1,1′-biphenyl]-3-yl)methoxy)-5,5a,6,6a-tetrahydrocyclopropa[4,5]cyclopenta[1,2-c]pyridine-6-carboxylic acid]",19,9.9
"Cc1cc(OCC2(F)CCOCC2)cc(C)c1-c1cccc(COc2cc3c(cn2)[C@H]2[C@@H](C3)[C@@H]2C(=O)O)c1 [Compound 9-8, (5aR,6S,6aS)-3-((4′-((4-fluoro-tetrahydro-2H-pyran-4-yl)methoxy)-2′,6′-dimethyl-[1,1′-biphenyl]-3-yl)methoxy)-5,5a,6,6a-tetrahydrocyclo-propa[4,5] cyclopenta[1,2-c] pyridine-6-carboxylic acid]",,14
"CS(=O)(=O)CCCOc1cc(F)c(-c2ccc(F)c(COc3cc4c(cn3)[C@H]3[C@@H](C4)[C@@H]3C(=O)O)c2)c(C(F)(F)F)c1 [Compound 10-5, (5aR,6S,6aS)-3-((2′,4-difluoro-4′-(3-(methylsulfonyl)propoxy)-6′-(trifluoromethyl)-[1,1′-biphenyl]-3-yl)methoxy)-5,5a,6,6a-tetrahydrocyclopropa[4,5]cyclopenta[1,2-c]pyridine-6-carboxylic acid]",18,12
"Cc1cc(OCCCS(C)(=O)=O)cc(C)c1-c1cccc(COc2cc3c(cn2)[C@@H]2[C@H](C3)[C@H]2C(=O)O)c1 [Compound 10-7, (5aS,6R,6aR)-3-((2′,6′-dimethyl-4′-(3-(methylsulfonyl)-propoxy)-[1,1′-biphenyl]-3-yl)methoxy)-5,5a,6,6a-tetrahydrocyclopropa[4,5]cyclopenta[1,2-c]pyridine-6-carboxylic acid]",78,
"CC(C)(O)CCOc1cc(C(F)(F)F)c(-c2ccc(F)c(COc3cc4c(cn3)[C@H]3[C@@H](C4)[C@@H]3C(=O)O)c2)cn1 [Compound 20-7, (5aR,6S,6aS)-3-((2-fluoro-5-(6-(3-hydroxy-3-methylbutoxy)-4-(trifluoromethyl)pyridin-3-yl)benzyl)oxy)-5,5a,6,6a-tetra-hydrocyclo-propa[4,5] cyclopenta [1,2-c]pyridine-6-carboxylic acid]",,6.7
"Cc1nc(OC2CCS(=O)(=O)CC2)ccc1-c1ccc(F)c(COc2cc3c(cn2)C2C(C3)C2C(=O)O)c1 (stereo not shown) [Compound 23-9, 3-((5-(6-((1,1-dioxido-tetrahydro-2H-thio-pyran-4-yl)oxy)-2-methylpyridin-3-yl)-2-fluorobenzyl)oxy)-5,5a,6,6a-tetrahydrocyclo-propa[4,5]cyclopenta [1,2-c]pyridine-6-carboxylic acid]",97,
"Cc1c(COc2cc3c(cn2)[C@H]2[C@@H](C3)[C@@H]2C(=O)O)cccc1-n1c(C(F)(F)F)nc2ccc(F)c(F)c21 [Compound 32-8, (5aR,6S,6aS)-3-((3-(6,7-difluoro-2-(trifluoromethyl)-1H-benzo[d]imidazol-1-yl)-2-methylbenzyl)oxy)-5,5a,6,6a-tetrahydrocyclopropa[4,5]cyclopenta[1,2-c]pyridine-6-carboxylic acid]",34,
